The values that follow are results of earlier work, collected in PMC7435928, “Preclinical Evaluation of NHS-Activated Gold Nanoparticles Functionalized with Bombesin or Neurotensin-Like Peptides for Targeting Colon and Prostate Tumours” (Molecules, 2020).

The target of series [1] is bombesin BBRS1, BBRS2 and BBRS3 receptors. Also on record: method as in printed for the value. Conditions: target receptors BBRS1, BBRS2; not measured in this paper, ref not given; cited from earlier work.
Series [2] relates to prostate tumour bearing mice. Particulars: 60 min p.i.; cited from earlier work. On the procedure:
(§1) Several tracers have been developed to target and facilitate the molecular imaging of colon or prostate cancer, such as: ^68Ga-NGR with over 2.7 ± 0.65% ID/g in colon tumour at 30 min p.i., [^18F]FDG with 2.5 ± 0.5% ID/g [^18F]FDG in colon tumours, [^18F]fluorocholine (FCH) with 7.9 ± 5% ID/g at 60 min p.i. in prostate tumour bearing mice. Compared to these, the values obtained for tumour uptake using the four studied nanotracers are between 2.53 ± 0.26% ID/g for ^68Ga-DOTA-NMN-AuNP to 9.82 ± 2.28% ID/g for ^68Ga-DOTA-PEG(4)-BBN(7-14)-AuNP in colon tumours and 2.79 ± 0.4% ...

Another series has as its system colon tumour. Particulars: in vivo; cited from earlier work. On the procedure:
as §1

For orientation: Kd means the equilibrium constant for the complex coming apart. Regarding `COc1ccc(C2(CNC(=O)[C@](C)(Cc3c[nH]c4ccccc34)NC(=O)Nc3ccc([N+](=O)[O-])cc3)CCCCC2)nc1` [PD 176252], the Kd in series [1] is 1 nM.

Take `C[N+](C)(CF)CCO` [[^18F]fluorocholine (FCH), [^18F]fluorocholine]: in series [2], the Tumour uptake is 7.9 ± 5 % ID/g. As to [^18F]FDG, the Tumour uptake with colon tumour is recorded as 2.5 ± 0.5 % ID/g.
